# Where two headings read alike, the source gives them in different places.
# Key:
# [1] = system: thrombus formation in whole blood; assay: T-TAS AR chip, rivaroxaban-anticoagulated whole blood; assay type: cell-based, human; conditions: 9 uM dose (a pharmacological dose)
# Procedure: Rivaroxaban (sometimes herein called Riv) dose-response in whole blood was measured using T-TASR. An AR chip (Collagen+TF) was used. T-TAS® assays were performed according to Example 3. The donor platelets were used at 307 k/μL.
# Thrombosomes were prepared consistent with the procedures described in U.S. Pat. No. 8,486,617 (such as, e.g., Examples 1-5) and U.S. Pat. No. 8,097,403 (such as, e.g., Examples 1-3), and rehydrated by addition of sterile water. T-TAS® assays were run according to Example 3 using 3 μM rivaroxaban and different concentrations of thrombosomes (FIG. 10A, Table 8). The ‘No Riv’ vertical line indicates the approximate occlusion time of a sample with no added rivaroxaban.
# [2] = system: occlusion of Platelet Rich Plasma (PRP)
# Procedure: The T-TAS® instrument was prepared for use according to the manufacturer's instructions. AR Chips (Diapharma Cat. #TC0101) and AR Chip Calcium Corn Trypsin Inhibitor (CaCTI; Diapharma Cat. #TR0101) were warmed to room temperature. […] The sample was loaded and run on the T-TAS® according to the manufacturer's instructions.
# The effect of cangrelor and ticagrelor on occlusion time of Platelet Rich Plasma (PRP) with and without FDPDs was assessed using the T-TAS® assay. The concentrations of the agents were as follows: cangrelor at 1 μM, ticagrelor at 500 ng/mL, FDPDs at 150 k/μL, and ADP at 2 μM. […] The number of trials per each assay is listed as the “(n=_)” values.
# [3] = cited from earlier work
# [4] = system: New Zealand White Rabbits; assay: Ear bleed time in clopidogrel-treated rabbits; assay type: in vivo, rabbit; conditions: clopidogrel 23 mg/kg for 5 days, untreated 87.1+/−18.2
# Procedure: Rabbits were treated with clopidogrel at 23 mg/kg for 5 days. The rabbits were anesthetized, the ear was bled and time to clot recorded. Animals were treated, injected into a vein or artery, with saline or 1.6×10^9/kg of human FDPDs, at the same time the ear was bled, and the ear bleed trial commenced. The time from ear bleed to stop bleeding was recorded by visual inspection.
# NOD-SCID mice = assay: Tail snip bleeding time in clopidogrel-treated mice; assay type: in vivo, mouse; conditions: clopidogrel 5 mg/kg for 3 days, untreated 758.6+/−623.4
# Procedure: Mice were treated with clopidogrel at 5 mg/kg for 3 days. The mice were anesthetized, the tail end was snipped off at 1 mm diameter and submerged in warm saline and time to clot recorded. Animals were syringe injected, into a vein or artery, with saline or 1.6×10^9/kg of FDPDs, at the same time the tail was snipped, and the tail snip trial commenced. The time from tail snip to tail stop bleeding was recorded by visual inspection of cessation of blood loss.
# [5] = system: thrombin generation in platelet rich plasma; assay: Thrombin generation assay in dabigatran-treated PRP; assay type: cell-based, human; conditions: dabigatran (100 ng/mL), PRP reagent; 18.89 untreated
# Procedure: • (1) Open CAT software; set up instrument; and prepare PRP reagent (including Tissue Factor and some phospholipids), calibrator, and fluoro-buffer according to manufacturer guidelines. • (2) Thaw warfarin or control plasma in 37° C. water bath for 5 minutes. • (3) Rehydrate thrombosomes with cell culture grade water for 10 minutes then dilute with Control Buffer to double target concentration. • (4) For each sample, combine 1:1 volumes of Control Buffer with or without thrombosomes and plasma. • (5) Using a multichannel pipette, add 20 μL of PRP reagent to each well. • (6) Add 80 μL of sample per well.
# [6] = system: thrombus formation in GK PPP; assay: T-TAS AR chip, George King Platelet Poor Plasma with or without GPRP; assay type: biochemical, human; conditions: GK PPP + 1 mM GPRP (No Tsomes)
# Procedure: In the Total Thrombus-formation Analysis System (T-TAS®, FUJIMORI KOGYO CO., LTD), the sample is forced through collagen-coated microchannels using mineral oil. Changes in pressure are used to assess thrombus formation. The Occlusion Start Time is time it takes to reach Δ10 kPa, and the Occlusion Time=time it takes to each Δ80 kPa using an AR chip (Zacros Item No, TC0101).
# The effect of GPRP (1 mM) on occlusion activity was also assayed.
# [7] = system: time to clot in pooled normal plasma; assay: Activated clotting time (ACT), heparin and protamine in pooled normal plasma; assay type: biochemical, human; conditions: heparin titration
# Procedure: This experiment assessed how clinical proportions of Heparin and Protamine affect FDPD function. FDPDs were prepared according to the procedure in Example 18. An Activating Clotting Time (ACT) assay was performed to measure time to clot and TGA was performed to measure thrombin generation. An initial Heparin titration run was performed using ACT to find the minimum Heparin dose needed to reach abnormal clot time.
# Activated clotting time was measured using pooled normal plasma with heparin (H) and protamine (P) as labeled on the x-axis; ½ P, P, and 3/2 P represent protamine doses of 4, 8, and 12 μg/ml, respectively. FDPDs, (referred to as “Tsomes” in FIG. 33) were added at 10, 25 or 50 K/μl. […] “K” in the legend stands for 10^3 FDPDS. All samples were run in duplicate. N=2. The experiment was repeated on separate days to improve statistical relevance.
# [8] = ADP (2 μM) stimulated PRP, cangrelor at 1 μM (n=4) or ticagrelor at 500 ng/mL (n=5), PRP alone 19.5±1.5
compound,measurement,setting,value
O=C(NC[C@H]1CN(c2ccc(N3CCOCC3=O)cc2)C(=O)O1)c1ccc(Cl)s1 [Rivaroxaban],occlusion and thrombus formation,[1],inhibits occlusion but not all thrombus formation
"CC(=O)Oc1ccccc1C(=O)O [aspirin, Acetylsalicylic acid]",occlusion time,"[2]; PRP at 30K/μL, aspirin at 500 μM, PRP alone 25:56",> 30 min
same,peak concentration,[3]; single 500 mg dose IV,500 µM
same,peak concentration,[3]; single 500 mg dose orally,44 µM
CSCCNc1nc(SCCC(F)(F)F)nc2c1ncn2[C@@H]1O[C@H](COP(=O)(O)OP(=O)(O)C(Cl)(Cl)P(=O)(O)O)[C@@H](O)[C@H]1O [cangrelor],occlusion time,[2]; [8],28.0 ± 3.0 min
COC(=O)[C@H](c1ccccc1Cl)N1CCc2sccc2C1 [clopidogrel],bleed time,[4],206.8 ± 104.2 s
same,bleed time,NOD-SCID mice,1661 ± 257.9 s
[H]/N=C(/N)c1ccc(NCc2nc3cc(C(=O)N(CCC(=O)O)c4ccccn4)ccc3n2C)cc1 [dabigatran],Time to peak,[5],34.67 min
CCCSc1nc(N[C@@H]2C[C@H]2c2ccc(F)c(F)c2)c2nnn([C@@H]3C[C@H](OCCO)[C@@H](O)[C@H]3O)c2n1 [ticagrelor],occlusion time,[2]; [8],28.0 ± 3.0 min
GPRP,Area Under Curve,[6],52.43
same,Occlusion Speed,[6],0 kPa/min
Heparin,minimum Heparin dose needed to reach abnormal clot formation,[7],0.8 U/mL
